Reference: ChEMBL document CHEMBL1128887, “3-benzyl-quinolones: Novel, potent inhibitors of mammalian topoisomerase II” (Bioorg Med Chem Lett, 1995)

How the values were obtained:
[1] = target: DNA topoisomerase II (Homo sapiens, UniProt P11388+Q02880); assay: Inhibitory activity against HeLa cell Topoisomerase II; assay type: cell-based
[2] = system: P388; assay: In vitro cytotoxicity against P388 mouse leukemia cells; assay type: functional, cell-based
[3] = system: Mus musculus; assay: In vivo antitumor activity was measured as tumor growth inhibition in BDF1 male mice implanted with murine pancreatic adenocarcinoma (Panc 03) at dose schedule qd 3-9 administered sc; assay type: functional
[4] = system: Mus musculus; assay: In vivo antitumor activity was measured as maximum tolerated dose in BDF1 male mice implanted with murine pancreatic adenocarcinoma (Panc 03) at dose schedule qd 3-9 administered sc; assay type: functional
[5] = target: Nucleic Acid; assay: Compound was evaluated for its activity against bacterial DNA gyrase; assay type: nucleic-acid assay, Bacteria
[6] = system: Mus musculus; assay: In vivo antitumor activity was measured as maximum tolerated dose in BDF1 male mice implanted with murine pancreatic adenocarcinoma (Panc 03) at dose schedule qd 4-11 administered iv; assay type: functional
[7] = system: Mus musculus; assay: In vivo antitumor activity was measured as tumor growth inhibition in BDF1 male mice implanted with murine pancreatic adenocarcinoma (Panc 03) at dose schedule qd 4-11 administered iv; assay type: functional
[8] = system: Mus musculus; assay: In vivo antitumor activity was measured as tumor growth inhibition in BDF1 male mice implanted with murine pancreatic adenocarcinoma (Panc 03) at dose schedule qd 3,4,7,10 administered iv; assay type: functional
[9] = system: Mus musculus; assay: In vivo antitumor activity was measured as maximum tolerated dose in BDF1 male mice implanted with murine pancreatic adenocarcinoma (Panc 03) at dose schedule qd 3,4,7,10 administered iv; assay type: functional
[10] = system: Mus musculus; assay: In vivo antitumor activity was measured as maximum tolerated dose in BDF1 male mice implanted with murine pancreatic adenocarcinoma (Panc 03) at dose schedule qd 3-12 administered sc; assay type: functional
[11] = system: Mus musculus; assay: In vivo antitumor activity was measured as tumor growth inhibition in BDF1 male mice implanted with murine pancreatic adenocarcinoma (Panc 03) at dose schedule qd 3-12 administered sc; assay type: functional
[12] = system: Mus musculus; assay: In vivo antitumor activity was measured as tumor growth inhibition in BDF1 male mice implanted with murine pancreatic adenocarcinoma (Panc 03) at dose schedule qd 4-9 administered sc; assay type: functional
[13] = system: Mus musculus; assay: In vivo antitumor activity was measured as maximum tolerated dose in BDF1 male mice implanted with murine pancreatic adenocarcinoma (Panc 03) at dose schedule qd 4-9 administered sc; assay type: functional
[14] = system: Mus musculus; assay: In vivo antitumor activity was measured as tumor growth inhibition in BDF1 male mice implanted with murine pancreatic adenocarcinoma (Panc 03) at dose schedule qd 3, bid 4-9; sc bid 10,11 administered iv; assay type: functional
[15] = system: Mus musculus; assay: In vivo antitumor activity was measured as maximum tolerated dose in BDF1 male mice implanted with murine pancreatic adenocarcinoma (Panc 03) at dose schedule qd 3, bid 4-9; sc bid 10,11 administered iv; assay type: functional
[16] = system: Mus musculus; assay: In vivo antitumor activity was measured as maximum tolerated dose in BDF1 male mice implanted with murine pancreatic adenocarcinoma (Panc 03) at dose schedule qd 3-11 administered iv; assay type: functional
[17] = system: Mus musculus; assay: In vivo antitumor activity was measured as tumor growth inhibition in BDF1 male mice implanted with murine pancreatic adenocarcinoma (Panc 03) at dose schedule qd 3-11 administered iv; assay type: functional
[18] = system: Mus musculus; assay: In vivo antitumor activity was measured as maximum tolerated dose in BDF1 male mice implanted with murine pancreatic adenocarcinoma (Panc 03) at dose schedule qd 4,6,8,10,12,14,16 administered iv; assay type: functional
[19] = system: Mus musculus; assay: In vivo antitumor activity was measured as tumor growth inhibition in BDF1 male mice implanted with murine pancreatic adenocarcinoma (Panc 03) at dose schedule qd 4,6,8,10,12,14,16 administered iv; assay type: functional

| EC50 [1] [µM] | Structure (SMILES) | IC50 [2] [µM] | also measured |
| --- | --- | --- | --- |
| 2.1 | Cc1cc(-c2c(F)cc3c(=O)c(Cc4ccccc4N)cn(C4CC4)c3c2F)cc(C)n1 | 2.1 |  |
| 1.6 | Cc1cc(-c2c(F)cc3c(=O)c(Cc4c[nH]cn4)cn(C4CC4)c3c2F)cc(C)n1 | 0.39 |  |
| > 210 | Cc1cc(-c2c(F)cc3c(=O)c(Cc4ccc(N(C)C)cc4)cn(C4CC4)c3c2F)cc(C)n1 |  |  |
| > 120 | Cc1cc(-c2c(F)cc3c(=O)c(-c4ccccc4)cn(C4CC4)c3c2F)cc(C)n1 |  |  |
| 1.1 | Cc1cc(-c2c(F)cc3c(=O)c(Cc4cccc(O)c4)cn(C4CC4)c3c2F)cc(C)n1 | 2.2 |  |
| 1.2 | Cc1cc(-c2c(F)cc3c(=O)c(Cc4ccc(O)cc4)cn(C4CC4)c3c2F)cc(C)n1 | 1.5 |  |
| 14 | COc1ccccc1Cc1cn(C2CC2)c2c(F)c(-c3cc(C)nc(C)c3)c(F)cc2c1=O | 37 |  |
|  | Cc1cc(-c2c(F)cc3c(=O)ccn(C4CC4)c3c2F)cc(C)n1 |  | T/C [3]: >100%; MTD [4]: 2410 mg/kg |
| 4.7 | Cc1cc(-c2c(F)cc3c(=O)c(Cc4ccccc4NC(=O)C(F)(F)F)cn(C4CC4)c3c2F)cc(C)n1 |  |  |
| 14 | COc1ccc(Cc2cn(C3CC3)c3c(F)c(-c4cc(C)nc(C)c4)c(F)cc3c2=O)cc1 | 21 |  |
| 5.1 | Cc1cc(-c2c(F)cc3c(=O)c(Cc4ccc[nH]4)cn(C4CC4)c3c2F)cc(C)n1 | 0.93 |  |
| 7.2 | Cc1cc(-c2c(F)cc3c(=O)c(Cc4ccc(N)cc4)cn(C4CC4)c3c2F)cc(C)n1 |  |  |
| 200 | Cc1cc(-c2c(F)cc3c(=O)c(Cc4ccccc4C(=O)O)cn(C4CC4)c3c2F)cc(C)n1 |  |  |
| 9.1 | Cc1cc(-c2c(F)cc3c(=O)c(Cc4ccncc4)cn(C4CC4)c3c2F)cc(C)n1 |  |  |
| 7.7 | Cc1cc(-c2c(F)cc3c(=O)c(Cc4ccc(Cl)cc4)cn(C4CC4)c3c2F)cc(C)n1 | 20 |  |
|  | Cc1cc(-c2c(F)cc3c(=O)c(C(=O)O)cn(C4CC4)c3c2F)cc(C)n1 [WIN-57294] |  | MTD [10]: 600 mg/kg; T/C [11]: 31% |
| 0.098 | Cc1cc(-c2c(F)cc3c(=O)c(Cc4c(O)cc(O)cc4O)cn(C4CC4)c3c2F)cc(C)n1 | 0.47 |  |
| > 210 | Cc1cc(-c2c(F)cc3c(=O)c(Cc4cccc5ccccc45)cn(C4CC4)c3c2F)cc(C)n1 |  |  |
|  | COc1cc(NS(C)(=O)=O)ccc1Nc1c2ccccc2nc2ccccc12 [AMSACRINE] |  | T/C [12]: 0%; MTD [13]: 48 mg/kg |
| 5.1 | CC(=O)Nc1ccccc1Cc1cn(C2CC2)c2c(F)c(-c3cc(C)nc(C)c3)c(F)cc2c1=O |  |  |
| 0.16 | Cc1cc(-c2c(F)cc3c(=O)c(Cc4cc(O)ccc4O)cn(C4CC4)c3c2F)cc(C)n1 | 0.36 |  |
| > 120 | Cc1cc(-c2c(F)cc3c(=O)c(CCc4ccccc4)cn(C4CC4)c3c2F)cc(C)n1 |  |  |
| 14 | COc1cccc(Cc2cn(C3CC3)c3c(F)c(-c4cc(C)nc(C)c4)c(F)cc3c2=O)c1 | 20 |  |
| 3.3 | Cc1cc(-c2c(F)cc3c(=O)c(Cc4ccccc4NS(C)(=O)=O)cn(C4CC4)c3c2F)cc(C)n1 |  |  |
| > 230 | Cc1cc(-c2c(F)cc3c(=O)c(CC4CCCCC4)cn(C4CC4)c3c2F)cc(C)n1 |  |  |
| 12 | Cc1cc(-c2c(F)cc3c(=O)c(Cc4ccccn4)cn(C4CC4)c3c2F)cc(C)n1 |  |  |
|  | COc1cc([C@@H]2c3cc4c(cc3[C@@H](O[C@@H]3O[C@@H]5CO[C@@H](C)O[C@H]5[C@H](O)[C@H]3O)[C@H]3COC(=O)[C@H]23)OCO4)cc(OC)c1O [ETOPOSIDE] |  | MTD [18]: 96 mg/kg; T/C [19]: 3% |
| 0.36 | Cc1cc(-c2c(F)cc3c(=O)c(Cc4cccc(O)c4O)cn(C4CC4)c3c2F)cc(C)n1 | 0.88 |  |
| > 100 | CC(=O)Nc1ccc(Cc2cn(C3CC3)c3c(F)c(-c4cc(C)nc(C)c4)c(F)cc3c2=O)cc1 |  |  |

| Structure (SMILES) | EC50 [1] [µM] | IC50 [2] [µM] | also measured |
| --- | --- | --- | --- |
| Cc1cc(-c2c(F)cc3c(=O)c(Cc4c(O)cccc4O)cn(C4CC4)c3c2F)cc(C)n1 | 0.096 | 0.25 | EC50 [5]: 0.14 µM; MTD [6]: 12 mg/kg; T/C [7]: 0% |
| Cc1cc(-c2c(F)cc3c(=O)c(Cc4ccc(O)cc4O)cn(C4CC4)c3c2F)cc(C)n1 | 0.16 | 0.21 | T/C [8]: 73%; MTD [9]: 20 mg/kg |
| Cc1cc(-c2c(F)cc3c(=O)c(Cc4ncc[nH]4)cn(C4CC4)c3c2F)cc(C)n1 | 1.1 | 1.1 | T/C [14]: 21%; MTD [15]: 88 mg/kg |
| Cc1cc(-c2c(F)cc3c(=O)c(Cc4ccccc4O)cn(C4CC4)c3c2F)cc(C)n1 | 0.33 | 0.67 | MTD [16]: 225 mg/kg; T/C [17]: 5% |
| Cc1cc(-c2c(F)cc3c(=O)c(Cc4ccccc4)cn(C4CC4)c3c2F)cc(C)n1 | 3.9 | 7.3 | MTD [10]: 3749 mg/kg; T/C [11]: >100% |
